{
  "source": "patent US10538561B2",
  "about": "“Peptide for treating inflammatory diseases” (priority 2015, dated 2020)",
  "key": {"[1]": {"system": "Human Keratinocytes (HaCaT)", "test": "Cell cycle assay (Sub-G0/G1)", "type": "cell-based", "details": "48 h", "description": "Cell lines: Human Keratinocytes (HaCaT); test Item: IS181; treatment regimen: treated twice (once after 24 hours)-48 hours; concentration range: 100 6 g/ml-5000 6 g/ml. […] Cells were treated with IS181 for 24 hours. After 24 h, cells were again treated with IS181 for 24 hours. After 48 h of first treatment, cells were harvested and fixed in ethanol overnight. Cells were washed and stained with Cell cycle reagent and acquired on flow cytometer. […] Positive control: Curcumin."}, "[2]": {"system": "HaCaT (Human keratinocyte) cell line", "test": "Mitochondrial membrane potential by JC-1 assay", "type": "cell-based", "details": "20 h", "description": "For testing Apoptosis the Human Keratinocytes (HaCaT) cell line has been employed. The growth conditions are DMEM containing 1% FBS. […] Test concentration range is IS181 is tested at the highest (Qualitative analysis) effective concentrations selected on the basis of Quantitative JC-1 assay. The method of estimation is Mitochondrial membrane depolarization by JC-1 assay (Early apoptosis), LDH enzyme release (Necrosis). Treatment regimen & time points are JC-1 assay—Single addition, 20 h; LDH assay—Single addition, 24 h; Positive control: Triton-X-100, Doxorubicin-hydrochloride\nQuantitative effect on Δψm (Red fluorescence/Green fluorescence) in HaCaT cells post 20 hours of treatment. […] Evaluation (Qualitative and quantitative) of differential JC-1 staining in treated cells after 20 h on incubation with the test peptides."}, "MAP2K1 (MEK1)": {"biological_target": "MAP2K1 (MEK1) (Homo sapiens, UniProt Q02750)", "sequence (Q02750 whole entry)": "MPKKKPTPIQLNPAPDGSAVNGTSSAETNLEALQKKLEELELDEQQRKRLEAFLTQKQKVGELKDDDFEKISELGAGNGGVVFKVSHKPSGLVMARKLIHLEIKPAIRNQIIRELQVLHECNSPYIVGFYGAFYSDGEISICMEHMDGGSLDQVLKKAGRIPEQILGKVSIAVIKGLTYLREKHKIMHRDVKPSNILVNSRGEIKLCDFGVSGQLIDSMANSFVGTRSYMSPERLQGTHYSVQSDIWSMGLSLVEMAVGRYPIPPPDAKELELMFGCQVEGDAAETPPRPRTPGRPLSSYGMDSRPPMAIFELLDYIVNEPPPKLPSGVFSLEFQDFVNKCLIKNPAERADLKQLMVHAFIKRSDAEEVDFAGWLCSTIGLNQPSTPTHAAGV", "test": "Biochemical kinase assay MAP2K1", "description": "(§1) Test system: cell free assays; test items: IS181; concentrations tested: 1 ng/ml-5000 μg/ml; Kinases: a) Cell free assays: EGFR (ErbB1); FLT1 (VEGFR1); JAK1; JAK3 MAP2K1 (MEK1); PDGFRA (PDGFR alpha); PRKCA (PKC alpha); b) cell based assay: JAK-STAT."}, "[3]": {"test": "Cell viability of splenocytes (MTT)", "type": "cell-based, mouse", "details": "mouse, mouse splenocytes, splenocytes, 24 h", "description": "Cell lines: mouse splenocytes; test item: IS181; treatment regimen: single addition—24 hours; concentration range: 10 μg/ml-5000 μg/ml.A) Identification of non-cytotoxic concentrations: splenocytes were treated with IS181 for 24 hours. Effect on cell viability was assessed by MTT assay. Concentrations leading to >75% cell viability were selected for IL-17 assay. B) IL-17 assay: splenocytes were treated with IS181 in presence of ConA stimulation for 24 hours. Supernatants were collected and stored at −20° C. till analysed. Levels of IL-17 were analysed in supernatants by ELISA. Percent inhibition of IL-17 secretion was calculated with reference to ConA treated levels. Positive control: curcumin."}, "JAK3": {"biological_target": "T1, JAK3 (Homo sapiens, UniProt P52333)", "T1 sequence (P52333 1-1124)": "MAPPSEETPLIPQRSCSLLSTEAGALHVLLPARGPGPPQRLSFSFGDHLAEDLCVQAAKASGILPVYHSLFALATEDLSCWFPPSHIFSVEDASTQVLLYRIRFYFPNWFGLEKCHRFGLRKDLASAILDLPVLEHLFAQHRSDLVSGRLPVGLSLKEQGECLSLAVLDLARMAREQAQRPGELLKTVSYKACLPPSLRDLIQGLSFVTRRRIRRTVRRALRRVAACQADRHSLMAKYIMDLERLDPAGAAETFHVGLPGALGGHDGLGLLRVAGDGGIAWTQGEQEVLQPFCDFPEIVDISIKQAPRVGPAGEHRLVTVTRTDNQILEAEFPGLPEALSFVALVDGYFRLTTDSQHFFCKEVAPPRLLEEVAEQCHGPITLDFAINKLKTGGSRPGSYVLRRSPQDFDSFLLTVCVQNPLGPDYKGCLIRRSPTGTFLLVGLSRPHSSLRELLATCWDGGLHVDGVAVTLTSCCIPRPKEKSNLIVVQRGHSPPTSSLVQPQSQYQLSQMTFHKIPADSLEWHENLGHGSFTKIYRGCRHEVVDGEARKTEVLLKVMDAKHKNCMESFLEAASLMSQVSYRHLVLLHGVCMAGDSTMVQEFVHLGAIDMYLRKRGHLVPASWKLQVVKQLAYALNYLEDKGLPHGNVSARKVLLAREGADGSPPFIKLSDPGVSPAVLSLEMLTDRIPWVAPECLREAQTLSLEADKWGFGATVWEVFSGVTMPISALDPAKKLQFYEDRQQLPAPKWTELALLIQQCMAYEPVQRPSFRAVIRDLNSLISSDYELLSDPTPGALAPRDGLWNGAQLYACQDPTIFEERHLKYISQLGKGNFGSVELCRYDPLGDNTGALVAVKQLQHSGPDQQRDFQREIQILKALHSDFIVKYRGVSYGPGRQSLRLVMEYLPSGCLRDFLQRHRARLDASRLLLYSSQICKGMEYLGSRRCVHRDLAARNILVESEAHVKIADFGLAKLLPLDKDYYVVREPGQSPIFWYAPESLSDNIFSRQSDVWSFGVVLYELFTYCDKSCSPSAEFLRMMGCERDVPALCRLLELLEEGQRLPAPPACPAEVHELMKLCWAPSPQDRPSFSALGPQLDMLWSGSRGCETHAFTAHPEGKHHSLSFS", "test": "Biochemical kinase assay JAK3", "description": "as §1"}},
  "data": [
    {"substance": "H-WVQRVVEKFLK-OH [IS181, H-Trp-Val-Gln-Arg-Val-Val-Glu-Lys-Phe-Leu-Lys-OH]", "values": [
      {"measurement": "increase in pro-apoptotic cells (Sub-G0/G1 population) vs untreated", "setting": "[1]; 100 μg/ml", "result": 9.1, "unit": "fold"},
      {"measurement": "increase in pro-apoptotic cells (Sub-G0/G1 population) vs untreated", "setting": "[1]; 500 μg/ml", "result": 7.1, "unit": "fold"},
      {"measurement": "increase in pro-apoptotic cells (Sub-G0/G1 population) vs untreated", "setting": "[1]; 1000 μg/ml", "result": 2.3, "unit": "fold"},
      {"measurement": "increase in pro-apoptotic cells (Sub-G0/G1 population) vs untreated", "setting": "[1]; 5000 μg/ml", "result": 29.7, "unit": "fold"},
      {"measurement": "Green fluorescence intensity (RFU)", "setting": "[2]; 400 μg/ml", "result": "13.67 ± 1.89", "unit": "RFU"},
      {"measurement": "Red fluorescence intensity (RFU)", "setting": "[2]; 400 μg/ml", "result": "134.33 ± 32.06", "unit": "RFU"},
      {"measurement": "Red fluorescence intensity/Green fluorescence intensity", "setting": "[2]; 400 μg/ml", "result": 9.83},
      {"measurement": "Green fluorescence intensity (RFU)", "setting": "[2]; 475 μg/ml", "result": "14.83 ± 3.54", "unit": "RFU"},
      {"measurement": "Red fluorescence intensity (RFU)", "setting": "[2]; 475 μg/ml", "result": "150.67 ± 11.31", "unit": "RFU"},
      {"measurement": "Red fluorescence intensity/Green fluorescence intensity", "setting": "[2]; 475 μg/ml", "result": 10.16},
      {"measurement": "Green fluorescence intensity (RFU)", "setting": "[2]; 500 μg/ml", "result": "14.5 ± 2.12", "unit": "RFU"},
      {"measurement": "Red fluorescence intensity (RFU)", "setting": "[2]; 500 μg/ml", "result": "152.83 ± 31.82", "unit": "RFU"},
      {"measurement": "Red fluorescence intensity/Green fluorescence intensity", "setting": "[2]; 500 μg/ml", "result": 10.54},
      {"measurement": "Green fluorescence intensity (RFU)", "setting": "[2]; 750 μg/ml", "result": "17.67 ± 4.24", "unit": "RFU"},
      {"measurement": "Red fluorescence intensity (RFU)", "setting": "[2]; 750 μg/ml", "result": "126.17 ± 6.36", "unit": "RFU"},
      {"measurement": "Red fluorescence intensity/Green fluorescence intensity", "setting": "[2]; 750 μg/ml", "result": 7.14},
      {"measurement": "decrease in mitochondrial membrane potential (R/G ratio) as compared to untreated cells", "setting": "[2]; 750 μg/ml to 2 mg/ml", "result": "34% to 88.6%"},
      {"measurement": "Green fluorescence intensity (RFU)", "setting": "[2]; 1000 μg/ml", "result": "^#25.83 ± 5.42^ RFU"},
      {"measurement": "Red fluorescence intensity (RFU)", "setting": "[2]; 1000 μg/ml", "result": "^#102.25 ± 4.60 ^ RFU"},
      {"measurement": "Red fluorescence intensity/Green fluorescence intensity", "setting": "[2]; 1000 μg/ml", "result": 3.96},
      {"measurement": "Green fluorescence intensity (RFU)", "setting": "[2]; 2000 μg/ml", "result": "#41.25 ± 15.20 RFU"},
      {"measurement": "Red fluorescence intensity (RFU)", "setting": "[2]; 2000 μg/ml", "result": "^#50.58 ± 0.12^ RFU"},
      {"measurement": "Red fluorescence intensity/Green fluorescence intensity", "setting": "[2]; 2000 μg/ml", "result": "**1.23"},
      {"measurement": "inhibition of MAP2K1 (MEK1)", "setting": "MAP2K1 (MEK1); 10 μg/ml-5000 μg/ml", "result": "23%-49%"},
      {"measurement": "inhibition at 50 µg/mL", "setting": "MAP2K1 (MEK1); cell free, 50 μg/ml", "result": 49, "unit": "%"},
      {"measurement": "inhibition at 100 µg/mL", "setting": "MAP2K1 (MEK1); cell free, 100 μg/ml", "result": 26, "unit": "%"},
      {"measurement": "inhibition at 250 µg/mL", "setting": "MAP2K1 (MEK1); cell free, 250 μg/ml", "result": 30, "unit": "%"},
      {"measurement": "inhibition at 500 µg/mL", "setting": "MAP2K1 (MEK1); cell free, 500 μg/ml", "result": 23, "unit": "%"},
      {"measurement": "inhibition at 1000 µg/mL", "setting": "MAP2K1 (MEK1); cell free, 1000 μg/ml", "result": 13, "unit": "%"},
      {"measurement": "inhibition at 2000 µg/mL", "setting": "MAP2K1 (MEK1); cell free, 2000 μg/ml", "result": -16, "unit": "%"},
      {"measurement": "inhibition at 5000 µg/mL", "setting": "MAP2K1 (MEK1); cell free, 5000 μg/ml", "result": -81, "unit": "%"},
      {"measurement": "viability at 24 h, 10 μg/ml", "setting": "[3]; 10 μg/ml", "result": 97, "unit": "%"},
      {"measurement": "viability at 24 h, 50 μg/ml", "setting": "[3]; 50 μg/ml", "result": 110, "unit": "%"},
      {"measurement": "viability at 24 h, 100 μg/ml", "setting": "[3]; 100 μg/ml", "result": 110, "unit": "%"},
      {"measurement": "viability at 24 h, 500 μg/ml", "setting": "[3]; 500 μg/ml", "result": 94.6, "unit": "%"},
      {"measurement": "viability at 24 h, 1 mg/ml", "setting": "[3]; 1 mg/ml", "result": 79.4, "unit": "%"},
      {"measurement": "viability at 24 h, 2 mg/ml", "setting": "[3]; 2 mg/ml", "result": 51.6, "unit": "%"},
      {"measurement": "viability at 24 h, 5 mg/ml", "setting": "[3]; 5 mg/ml", "result": 25.6, "unit": "%"},
      {"measurement": "inhibition at 10 µg/mL", "setting": "JAK3; 10 μg/ml", "result": 13, "unit": "%"},
      {"measurement": "inhibition at 50 µg/mL", "setting": "JAK3; cell free, 50 μg/ml", "result": 13, "unit": "%"},
      {"measurement": "inhibition at 100 µg/mL", "setting": "JAK3; cell free, 100 μg/ml", "result": -24, "unit": "%"},
      {"measurement": "inhibition at 250 µg/mL", "setting": "JAK3; cell free, 250 μg/ml", "result": -72, "unit": "%"},
      {"measurement": "inhibition at 500 µg/mL", "setting": "JAK3; cell free, 500 μg/ml", "result": -142, "unit": "%"},
      {"measurement": "inhibition at 1000 µg/mL", "setting": "JAK3; cell free, 1000 μg/ml", "result": -198, "unit": "%"}
    ]}
  ]
}
